ChEMBL document CHEMBL5390237, “Discovery of Selective Histone Deacetylase 1 and 2 Inhibitors: Screening of a Focused Library Constructed by Click Chemistry, Kinetic Binding Analysis, and Biological Evaluation” (J Med Chem, 2023)

Biological target: Histone deacetylase 2 (Homo sapiens, UniProt Q92769)
Test: Inhibition of full-length recombinant human C-terminal GST tagged HDAC2 expressed in Sf9 insect cells using aminoluciferin peptide substrate at 100 nM preincubated for 3 hrs followed by substrate addition and measured after 30 mins by HDAC-Glo I/II chemiluminescence assay
Conditions: time 3.5 hrs

Sequence of Histone deacetylase 2 (Q92769 whole entry): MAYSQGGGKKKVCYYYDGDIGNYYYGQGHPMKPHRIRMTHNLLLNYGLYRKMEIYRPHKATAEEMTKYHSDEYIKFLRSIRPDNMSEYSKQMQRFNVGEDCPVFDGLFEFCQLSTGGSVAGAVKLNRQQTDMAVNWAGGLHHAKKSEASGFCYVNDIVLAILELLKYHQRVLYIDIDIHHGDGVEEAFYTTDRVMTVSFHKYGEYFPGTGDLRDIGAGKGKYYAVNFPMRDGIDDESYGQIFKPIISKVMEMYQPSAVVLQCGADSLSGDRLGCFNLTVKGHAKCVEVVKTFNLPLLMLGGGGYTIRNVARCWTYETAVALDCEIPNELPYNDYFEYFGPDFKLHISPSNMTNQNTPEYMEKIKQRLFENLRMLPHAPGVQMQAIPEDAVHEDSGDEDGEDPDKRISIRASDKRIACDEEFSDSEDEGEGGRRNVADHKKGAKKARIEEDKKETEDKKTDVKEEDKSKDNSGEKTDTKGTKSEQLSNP

inhibition	Structure (SMILES)
10%	CCc1ccc(Cn2cc(CCC(=O)Nc3cc(-c4cccs4)ccc3N)nn2)cc1
0%	Cc1ccc(-n2cc(CCC(=O)Nc3cc(-c4cccnc4)ccc3N)nn2)cc1C
0%	Nc1ccc(-c2cccnc2)cc1NC(=O)CCc1cn(CCN2CCOCC2)nn1
6%	Nc1ccc(-c2cccs2)cc1NC(=O)c1cccc(-c2cn(C[S+]([O-])c3ccccc3)nn2)c1 (centres undefined)
2%	Nc1ccc(-c2cccnc2)cc1NC(=O)CCc1cn(-c2ccc(Br)cc2)nn1
0%	Nc1ccc(-c2ccccc2)cc1NC(=O)CCc1cn(CCCCCCC(=O)O)nn1
33%	Cc1cccc(C)c1NC(=O)Cn1cc(C(=O)Nc2cc(-c3ccc(F)cc3)ccc2N)nn1
16%	Cc1ccc(CCn2cc(CCC(=O)Nc3cc(-c4ccccc4)ccc3N)nn2)cc1
0%	Nc1ccc(-c2ccccc2)cc1NC(=O)c1cn(Cc2cc3ccccc3s2)nn1
0%	Nc1ccc(-c2ccsc2)cc1NC(=O)c1cn(Cc2ccc(OC(F)(F)F)cc2)nn1
14%	Cc1ccccc1CCn1cc(CCC(=O)Nc2cc(-c3ccsc3)ccc2N)nn1
1%	Nc1ccc(-c2ccccc2)cc1NC(=O)CCc1cn(CCc2cccc(C(F)(F)F)c2)nn1
0%	Nc1ccc(-c2ccccc2)cc1NC(=O)c1cn(CCc2ccc(Cl)cc2)nn1
54%	Nc1ccc(-c2cccs2)cc1NC(=O)c1ccc(-c2cn(CCCCCC(=O)O)nn2)s1
18%	Nc1ccc(-c2ccccc2)cc1NC(=O)CCc1cn(Cc2ccc3ccccc3n2)nn1
0%	Nc1ccc(-c2cccnc2)cc1NC(=O)CCc1cn(CCCCCCC(=O)O)nn1
0%	Nc1ccc(-c2ccc(F)cc2)cc1NC(=O)c1cn(CCc2ccccc2Cl)nn1
0%	Nc1ccc(-c2cccs2)cc1NC(=O)c1ccc(-c2cn(-c3ccc(I)cc3)nn2)s1
0%	Nc1ccc(-c2cccs2)cc1NC(=O)c1ccc(-c2cn(CCc3ccccc3C(F)(F)F)nn2)cc1
0%	Nc1ccc(-c2ccccc2)cc1NC(=O)CCc1cn(CCCCC(=O)O)nn1
0%	Nc1ccc(-c2cccs2)cc1NC(=O)c1cccc(-c2cn(CCc3cccc4ccccc34)nn2)c1
61%	Nc1ccc(-c2cccs2)cc1NC(=O)c1ccc(-c2cn(CC(=O)c3ccccc3)nn2)cc1
0%	Nc1ccc(-c2cccs2)cc1NC(=O)c1cn(CCc2cccc(F)c2)nn1

inhibition	Structure (SMILES)
31%	Nc1ccc(-c2ccsc2)cc1NC(=O)CCc1cn(CCc2ccc(C(=O)O)cc2)nn1
1%	COc1ccc(CCn2cc(-c3cccc(C(=O)Nc4cc(-c5cccs5)ccc4N)c3)nn2)cc1
0%	Nc1ccc(-c2ccccc2)cc1NC(=O)c1cn(-c2ccc([N+](=O)[O-])cc2)nn1
22%	Nc1ccc(-c2cccs2)cc1NC(=O)c1ccc(-c2cn(CCc3cccc(Cl)c3)nn2)cc1
0%	Nc1ccc(-c2ccccc2)cc1NC(=O)c1cn(Cc2ccc(Oc3ccccc3)cc2)nn1
2%	Nc1ccc(-c2ccsc2)cc1NC(=O)CCc1cn(CCc2cccc(C(F)(F)F)c2)nn1
30%	Nc1ccc(-n2cc(-c3cccc(C(=O)Nc4cc(-c5cccs5)ccc4N)c3)nn2)cc1
12%	Nc1ccc(-c2ccsc2)cc1NC(=O)CCc1cn(CC(=O)c2ccccc2)nn1
0%	Nc1ccc(-c2ccsc2)cc1NC(=O)CCc1cn(Cc2ccc(-c3ccccc3)cc2)nn1
10%	Cc1csc(CCn2cc(C(=O)Nc3cc(-c4ccc(F)cc4)ccc3N)nn2)n1
0%	Nc1ccc(-c2ccc(F)cc2)cc1NC(=O)CCc1cn(CCC23CC4CC(CC(C4)C2)C3)nn1
3%	Nc1ccc(-c2cccs2)cc1NC(=O)c1cn(CCC2CCCCC2)nn1
0%	Nc1ccc(-c2cccs2)cc1NC(=O)c1cn(CCc2cccc(C(F)(F)F)c2)nn1
2%	Nc1ccc(-c2ccsc2)cc1NC(=O)CCc1cn(Cc2cccc3ccccc23)nn1
16%	Nc1ccc(-c2cccs2)cc1NC(=O)c1ccc(-c2cn(-c3ccc(O)cc3)nn2)cc1
16%	Nc1ccc(-c2cccs2)cc1NC(=O)c1cn(CCc2ccc(C(=O)O)cc2)nn1
6%	Nc1ccc(-c2cccs2)cc1NC(=O)c1cn(Cc2cccc(-c3ccccc3)c2)nn1
19%	Nc1ccc(-c2ccsc2)cc1NC(=O)c1cn(Cc2ccc3ccccc3n2)nn1
0%	Nc1ccc(-c2ccccc2)cc1NC(=O)c1cn(CC23CC4CC(CC(C4)C2)C3)nn1
0%	Nc1ccc(-c2ccsc2)cc1NC(=O)c1cn(CCCCCc2ccccc2)nn1
0%	Nc1ccc(-c2ccc(F)cc2)cc1NC(=O)CCc1cn(Cc2ccc(Oc3ccccc3)cc2)nn1
0%	Nc1ccc(-c2ccsc2)cc1NC(=O)CCc1cn(CCc2ccccc2C(F)(F)F)nn1
0%	Nc1ccc(-c2cccs2)cc1NC(=O)c1cn(CCC2CCCC2)nn1

inhibition	Structure (SMILES)
0%	Nc1ccc(-c2ccsc2)cc1NC(=O)CCc1cn(Cc2ccc(OC(F)(F)F)cc2)nn1
7%	Nc1ccc(-c2cccs2)cc1NC(=O)c1cccc(-c2cn(CC(=O)c3ccccc3)nn2)c1
41%	Nc1ccc(-c2cccs2)cc1NC(=O)c1cccc(-c2cn(CCCCCC(=O)O)nn2)c1
10%	Cc1cccc(CCn2cc(C(=O)Nc3cc(-c4ccc(F)cc4)ccc3N)nn2)c1
0%	Nc1ccc(-c2cccnc2)cc1NC(=O)CCc1cn(CC(=O)Nc2ccc(F)cc2)nn1
52%	Cc1cccc(C)c1NC(=O)Cn1cc(-c2ccc(C(=O)Nc3cc(-c4cccs4)ccc3N)cc2)nn1
25%	Nc1ccc(-c2cccs2)cc1NC(=O)c1ccc(-c2cn(CCc3cccc([N+](=O)[O-])c3)nn2)cc1
13%	Nc1ccc(-c2cccs2)cc1NC(=O)CCc1cn(CCc2ccsc2)nn1
0%	Nc1ccc(-c2ccsc2)cc1NC(=O)CCc1cn(-c2cccc3ccccc23)nn1
3%	Nc1ccc(-c2cccs2)cc1NC(=O)c1ccc(-c2cn(Cc3ccc4ccccc4c3)nn2)s1
1%	Nc1ccc(-c2ccc(F)cc2)cc1NC(=O)c1cn(CCc2ccsc2)nn1
0%	Nc1ccc(-c2ccsc2)cc1NC(=O)c1cn(CCC2CCCC2)nn1
13%	Nc1ccc(-c2cccs2)cc1NC(=O)c1ccc(-c2cn(Cc3cccc4ccccc34)nn2)s1
8%	Nc1ccc(-c2cccnc2)cc1NC(=O)CCc1cn(Cc2ccc(-c3ccccc3)cc2)nn1
8%	Nc1ccc(-c2ccc(F)cc2)cc1NC(=O)CCc1cn(-c2ccccc2-c2ccccc2)nn1
2%	Cc1ccc(CCn2cc(C(=O)Nc3cc(-c4ccccc4)ccc3N)nn2)cc1
5%	Nc1ccc(-c2ccsc2)cc1NC(=O)c1cn(CCCc2ccccc2)nn1
0%	Cc1ccc(-n2cc(CCC(=O)Nc3cc(-c4ccsc4)ccc3N)nn2)cc1C
5%	Cc1ccc(-n2cc(-c3cccc(C(=O)Nc4cc(-c5cccs5)ccc4N)c3)nn2)cc1C
0%	Nc1ccc(-c2ccccc2)cc1NC(=O)CCc1cn(Cc2cc3ccccc3s2)nn1
17%	COc1ccc(Cn2cc(C(=O)Nc3cc(-c4cccs4)ccc3N)nn2)cc1
11%	Nc1ccc(-c2cccs2)cc1NC(=O)CCc1cn(-c2ccc(Br)cc2)nn1
0%	Nc1ccc(-c2ccsc2)cc1NC(=O)CCc1cn(CCC23CC4CC(CC(C4)C2)C3)nn1
